The values below come from patent US20210317092A1 (BAYER PHARMA AKTIENGESELLSCHAFT, priority 2016, published 2021).

In the first test the target is T1, human Bradykinin B1 receptor (Homo sapiens, UniProt P46663).
T1 construct: host or cells: CHO-K1
T1 sequence (P46663 1-353): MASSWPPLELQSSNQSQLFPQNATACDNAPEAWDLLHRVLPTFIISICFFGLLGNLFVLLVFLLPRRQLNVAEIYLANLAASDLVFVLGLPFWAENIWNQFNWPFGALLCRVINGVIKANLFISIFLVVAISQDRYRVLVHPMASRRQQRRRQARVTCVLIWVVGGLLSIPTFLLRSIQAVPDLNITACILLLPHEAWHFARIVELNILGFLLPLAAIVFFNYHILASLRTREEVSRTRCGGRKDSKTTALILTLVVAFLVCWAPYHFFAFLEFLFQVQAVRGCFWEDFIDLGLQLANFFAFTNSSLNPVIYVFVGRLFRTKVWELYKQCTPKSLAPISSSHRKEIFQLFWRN
In words: Calcium flux Assay (FLIPR) with recombinant CHO-K1 cells expressing human Bradykinin B1 receptor, in presence (hB1 IC50) or absence (hB1 free IC50) of 0.1% BSA. As to conditions: in absence of 0.1% BSA, read-out: hB1 free IC50. It counts as cell-based. For orientation: Calcium assays in cells follow changes in intracellular calcium, usually with a dye or a luminescent sensor.
As usually defined, the IC50 is the concentration needed to halve the response being measured. With `O=C(Nc1ccc(-c2cc(F)cc(C(F)(F)F)c2)c(-c2nnn[nH]2)c1)C1(c2ccc(C(F)(F)F)cc2F)CC1` [Example 129, N-[3′-fluoro-2-(1H-tetrazol-5-yl)-5′-(trifluoromethyl)biphenyl-4-yl]-1-[2-fluoro-4-(trifluoromethyl)phenyl] cyclopropane-carboxamide], the half-inhibitory concentration (IC50) was 77.2 nM.

As for `O=C(Nc1ccc(-c2cc(F)cc(C(F)(F)F)c2)c(-c2nnn[nH]2)c1)C1(c2cccc(Cl)c2)CC1` [Example 130, 1-(3-chlorophenyl)-N-[3′-fluoro-2-(1H-tetrazol-5-yl)-5′-(trifluoromethyl)biphenyl-4-yl]cyclopropane carboxamide], the IC50 came to 362 nM. Same read-out and setting: the value for `COc1ccc(-c2ccc(NC(=O)C3(c4ccc(C(F)(F)F)cc4F)CC3)cc2-c2nnn[nH]2)cc1C(F)(F)F` [Example 131, 1-[2-fluoro-4-(trifluoromethyl)phenyl]-N-[4′-methoxy-2-(1H-tetrazol-5-yl)-3′-(trifluoromethyl)biphenyl-4-yl]cyclopropane carboxamide] was 53 nM.

As to `COc1ccc(-c2ccc(NC(=O)C3(c4cccc(Cl)c4)CC3)cc2-c2nnn[nH]2)cc1C(F)(F)F` [Example 132, 1-(3-chlorophenyl)-N-[4′-methoxy-2-(1H-tetrazol-5-yl)-3′-(trifluoromethyl)biphenyl-4-yl]cyclopropane carboxamide], the IC50 turned out to be 234 nM.

Regarding `COc1cc(-c2ccc(NC(=O)C3(c4ccc(C(F)(F)F)cc4F)CC3)cc2-c2nnn[nH]2)cc(C(F)(F)F)c1` [Example 133, 1-[2-fluoro-4-(trifluoromethyl)phenyl]-N-[3′-methoxy-2-(1H-tetrazol-5-yl)-5′-(trifluoromethyl)biphenyl-4-yl]cyclopropane carboxamide], the IC50 is 217 nM. On to `COc1cc(-c2ccc(NC(=O)C3(c4cccc(Cl)c4)CC3)cc2-c2nnn[nH]2)cc(C(F)(F)F)c1` [Example 134, 1-(3-chlorophenyl)-N-[3′-methoxy-2-(1H-tetrazol-5-yl)-5′-(trifluoromethyl)biphenyl-4-yl]cyclopropane carboxamide], for which the IC50 came to 572 nM. For `O=C(Nc1ccc(-c2ccc(C(F)(F)F)nc2)c(-c2nnn[nH]2)c1)C1(c2ccc(F)cc2F)CC1` [Example 142, 1-(2,4-difluorophenyl)-N-{3-(1H-tetrazol-5-yl)-4-[6-(trifluoromethyl)pyridin-3-yl]phenyl} cyclopropane-carboxamide], the IC50 worked out at 201 nM. On to `O=C(Nc1ccc(-c2ccc(C(F)(F)F)nc2)c(-c2nnn[nH]2)c1)C1(c2cc(F)c(F)cc2F)CC1` [Example 143, N-{3-(1H-tetrazol-5-yl)-4-[6-(trifluoromethyl)pyridin-3-yl]phenyl}-1-(2,4,5-trifluorophenyl) cyclopropane-carboxamide], for which the IC50 amounted to 144 nM. Same read-out and setting: the result for `O=C(Nc1ccc(-c2ccc(C(F)(F)F)nc2)c(-c2nnn[nH]2)c1)C1(c2ccc(F)cn2)CC1` [Example 145, 1-(5-fluoropyridin-2-yl)-N-{3-(1H-tetrazol-5-yl)-4-[6-(trifluoromethyl)pyridin-3-yl]phenyl} cyclopropane-carboxamide] reads 194 nM; that for `COc1cc(-c2ccc(NC(=O)C3(c4cccc(Cl)c4)CC3)cc2-c2nnn[nH]2)cnc1C(F)(F)F` [Example 146, 1-(3-chlorophenyl)-N-{4-[5-methoxy-6-(trifluoromethyl)pyridin-3-yl]-3-(1H-tetrazol-5-yl)phenyl} cyclopropane-carboxamide], 100 nM.

For `CCOc1ncc(-c2ccc(NC(=O)C3(c4cccc(Cl)c4F)CC3)cc2-c2nnn[nH]2)cc1C(F)(F)F` [Example 159, 1-(3-chloro-2-fluorophenyl)-N-{4-[6-ethoxy-5-(trifluoromethyl)pyridin-3-yl]-3-(1H-tetrazol-5-yl)phenyl} cyclopropane-carboxamide], the IC50 was found to be 40.3 nM. For `CCOc1cc(-c2ccc(NC(=O)C3(c4cccc(Cl)c4)CC3)cc2-c2nnn[nH]2)cc(C(F)(F)F)n1` [Example 166, 1-(3-chlorophenyl)-N-{4-[2-ethoxy-6-(trifluoromethyl)pyridin-4-yl]-3-(1H-tetrazol-5-yl)phenyl} cyclopropane-carboxamide], the concentration for half-maximal inhibition (IC50) worked out at 1130 nM. Same read-out and setting: the result for `O=C(Nc1ccc(-c2cc(F)ncc2F)c(-c2nnn[nH]2)c1)C1(c2ccc(C(F)(F)F)cc2F)CC1` [Example 167, N-[4-(2,5-difluoropyridin-4-yl)-3-(1H-tetrazol-5-yl)phenyl]-1-[2-fluoro-4-(trifluoromethyl)phenyl] cyclopropane-carboxamide] reads 634 nM; that for `O=C(Nc1ccc(-c2ccnc(C(F)F)c2)c(-c2nnn[nH]2)c1)C1(c2cccc(Cl)c2)CC1` [Example 170, 1-(3-chlorophenyl)-N-{4-[2-(difluoromethyl)pyridin-4-yl]-3-(1H-tetrazol-5-yl)phenyl} cyclopropane-carboxamide], 968 nM. `O=C(Nc1ccc(-c2ccnc(C(F)(F)F)c2)c(-c2nnn[nH]2)c1)C1(c2cccc(Cl)c2F)CC1` [Example 172, 1-(3-chloro-2-fluorophenyl)-N-{3-(1H-tetrazol-5-yl)-4-[2-(trifluoromethyl)pyridin-4-yl]phenyl} cyclopropane-carboxamide]: the IC50 amounted to 433 nM.

Staying with this test, now noted: in presence of 0.1% BSA, read-out: hB1 IC50.
Turning to `COCc1ccc(-c2ccc(NC(=O)C3(c4cccc(Cl)c4)CC3)cc2-c2nnn[nH]2)cc1C` [Example 124, 1-(3-chlorophenyl)-N-[4′-(methoxymethyl)-3′-methyl-2-(1H-tetrazol-5-yl)biphenyl-4-yl]cyclopropane carboxamide], the half-inhibitory concentration (IC50) came to 38.3 nM. Same read-out and setting: the result for `COc1cncc(-c2ccc(NC(=O)C3(c4ccc(F)cc4F)CC3)cc2-c2nnn[nH]2)c1` [Example 150, 1-(2,4-difluorophenyl)-N-[4-(5-methoxypyridin-3-yl)-3-(1H-tetrazol-5-yl)phenyl] cyclopropane-carboxamide] reads 39.2 nM; that for `COc1cncc(-c2ccc(NC(=O)C3(c4cccc(C)c4)CC3)cc2-c2nnn[nH]2)c1` [Example 151, N-[4(5-methoxypyridin-3-yl)-3-(1H-tetrazol-5-yl)phenyl]-1-(3-methylphenyl) cyclopropane-carboxamide], 127 nM. Same read-out and setting: the value for `COc1cncc(-c2ccc(NC(=O)C3(c4cccc(C(F)(F)F)c4)CC3)cc2-c2nnn[nH]2)c1` [Example 152, N-[4-(5-methoxypyridin-3-yl)-3-(1H-tetrazol-5-yl)phenyl]-1-[3-(trifluoromethyl)phenyl] cyclopropane-carboxamide] was 23.5 nM; that for `COc1cncc(-c2ccc(NC(=O)C3(c4ccc(C(F)(F)F)cc4)CC3)cc2-c2nnn[nH]2)c1` [Example 154, N-[4-(5-methoxypyridin-3-yl)-3-(1H-tetrazol-5-yl)phenyl]-1-[4-(trifluoromethyl)phenyl] cyclopropane-carboxamide] was 27.1 nM. The same measure, in the same setting: the value for `CCOc1cncc(-c2ccc(NC(=O)C3(c4cccc(C(F)(F)F)c4)CC3)cc2-c2nnn[nH]2)c1` [Example 155, N-[4-(5-ethoxypyridin-3-yl)-3-(1H-tetrazol-5-yl)phenyl]-1-[3-(trifluoromethyl)phenyl] cyclopropane-carboxamide] was 220 nM. On to `CCOc1cncc(-c2ccc(NC(=O)C3(c4ccc(F)cc4F)CC3)cc2-c2nnn[nH]2)c1` [Example 157, 1-(2,4-difluorophenyl)-N-[4-(5-ethoxypyridin-3-yl)-3-(1H-tetrazol-5-yl)phenyl] cyclopropane-carboxamide], for which the IC50 is 140 nM. For the compound `CCOc1ncc(-c2ccc(NC(=O)C3(c4cccc(Cl)c4)CC3)cc2-c2nnn[nH]2)cc1C(F)(F)F` [Example 158, 1-(3-chlorophenyl)-N-{4-[6-ethoxy-5-(trifluoromethyl)pyridin-3-yl]-3-(1H-tetrazol-5-yl)phenyl} cyclopropane-carboxamide], the IC50 turned out to be 764 nM. As to `CCOc1ncc(-c2ccc(NC(=O)C3(c4cccc(Cl)c4F)CC3)cc2-c2nnn[nH]2)cc1C(F)(F)F` [Example 159, 1-(3-chloro-2-fluorophenyl)-N-{4-[6-ethoxy-5-(trifluoromethyl)pyridin-3-yl]-3-(1H-tetrazol-5-yl)phenyl} cyclopropane-carboxamide], the IC50 was 585 nM. On to `CCOc1ncc(-c2ccc(NC(=O)C3(c4ccc(C(F)(F)F)cc4)CC3)cc2-c2nnn[nH]2)cc1C` [Example 161, N-[4-(6-ethoxy-5-methylpyridin-3-yl)-3-(1H-tetrazol-5-yl)phenyl]-1-[4-(trifluoromethyl)phenyl] cyclopropane-carboxamide], for which the IC50 worked out at 24.9 nM. For the compound `CCOc1ncc(-c2ccc(NC(=O)C3(c4ccc(F)cc4F)CC3)cc2-c2nnn[nH]2)cc1C` [Example 162, 1-(2,4-difluorophenyl)-N-[4-(6-ethoxy-5-methylpyridin-3-yl)-3-(1H-tetrazol-5-yl)phenyl] cyclopropane-carboxamide], the IC50 was determined as 59 nM. For the compound `CCOc1ncc(-c2ccc(NC(=O)C3(c4ccc(C(F)(F)F)cc4)CC3)cc2-c2nnn[nH]2)cc1F` [Example 164, N-[4-(6-ethoxy-5-fluoropyridin-3-yl)-3-(1H-tetrazol-5-yl)phenyl]-1-[4-(trifluoromethyl)phenyl] cyclopropane-carboxamide], the IC50 was 14.5 nM.

Regarding `CCOc1ncc(-c2ccc(NC(=O)C3(c4ccc(F)cc4F)CC3)cc2-c2nnn[nH]2)cc1F` [Example 165, 1-(2,4-difluorophenyl)-N-[4-(6-ethoxy-5-fluoropyridin-3-yl)-3-(1H-tetrazol-5-yl)phenyl] cyclopropane-carboxamide], the IC50 was 64.1 nM. Same read-out and setting: the value for `CCOc1cc(-c2ccc(NC(=O)C3(c4cccc(Cl)c4)CC3)cc2-c2nnn[nH]2)cc(C(F)(F)F)n1` [Example 166, 1-(3-chlorophenyl)-N-{4-[2-ethoxy-6-(trifluoromethyl)pyridin-4-yl]-3-(1H-tetrazol-5-yl)phenyl} cyclopropane-carboxamide] was 2160 nM. Still for that read-out and setting: the value for `CN(C)c1ccc(-c2ccc(NC(=O)C3(c4cccc(Cl)c4)CC3)cc2-c2nnn[nH]2)cn1` [Example 169, 1-(3-chlorophenyl)-N-{4-[6-(dimethylamino)pyridin-3-yl]-3-(1H-tetrazol-5-yl)phenyl} cyclopropane-carboxamide] was 117 nM; that for `O=C(Nc1ccc(-c2ccnc(C(F)(F)F)c2)c(-c2nnn[nH]2)c1)C1(c2cccc(Cl)c2F)CC1` [Example 172, 1-(3-chloro-2-fluorophenyl)-N-{3-(1H-tetrazol-5-yl)-4-[2-(trifluoromethyl)pyridin-4-yl]phenyl} cyclopropane-carboxamide] was 347 nM.
